Data reported in PubChem BioAssay (NCI).
Several values for one entry are separate records, joined by “and”; a condition that tells them apart may be missing. Identical values can stand only once.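 Assay format: 96-well plates, 48-hour exposure. The concentration for 50% growth inhibition is given as GI50. TGI denotes the concentration required for complete inhibition of growth.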

Assays:
Assay in all cases: NCI anticancer screen, dose series, 48 h
EKVX NSCLC = test system: EKVX NSCLC
SR leukemia = test system: SR leukemia
TK-10 renal = test system: TK-10 renal
SNB-19 CNS = test system: SNB-19 CNS
UACC-62 melanoma = test system: UACC-62 melanoma
HOP-62 NSCLC = test system: HOP-62 NSCLC
SK-OV-3 ovarian = test system: SK-OV-3 ovarian
NCI-H522 lung = test system: NCI-H522 lung
MALME-3M melanoma = test system: MALME-3M melanoma
CAKI-1 renal = test system: CAKI-1 renal

| SMILES | TGI (EKVX NSCLC) [µM] | TGI (SR leukemia) [µM] | TGI (TK-10 renal) [µM] | TGI (SNB-19 CNS) [µM] | TGI (UACC-62 melanoma) [µM] | TGI (HOP-62 NSCLC) [µM] | TGI (SK-OV-3 ovarian) | TGI (NCI-H522 lung) [µM] | TGI (MALME-3M melanoma) [µM] | TGI (CAKI-1 renal) [µM] | GI50 (EKVX NSCLC) | GI50 (SR leukemia) | GI50 (TK-10 renal) | GI50 (SNB-19 CNS) | GI50 (UACC-62 melanoma) | GI50 (HOP-62 NSCLC) | GI50 (SK-OV-3 ovarian) | GI50 (NCI-H522 lung) [µM] | GI50 (MALME-3M melanoma) | GI50 (CAKI-1 renal) |
| --- | --- | --- | --- | --- | --- | --- | --- | --- | --- | --- | --- | --- | --- | --- | --- | --- | --- | --- | --- | --- |
| COc1ccc(N=Cc2ccc(N(CCC#N)CCC#N)cc2)cc1 | > 100 | > 100 | > 89 | > 100 | > 100 | > 100 | > 100 µM | > 100 | > 100 | > 100 |  |  |  |  |  |  |  |  |  |  |
| CCOC(OC1=C(C#N)CCC1)C(CC)[Se]c1ccccc1 (stereo not given) | 89 | 31.1 | > 100 | > 100 | 61.9 | > 100 | > 100 µM | 26.8 | 66.7 | > 100 |  |  |  |  |  |  |  |  |  |  |
| Cn1cnc([N+](=O)[O-])c1Sc1ncnc2nc[nH]c12 | > 100 | > 100 | > 100 | > 100 | > 100 | > 100 | 39.6 µM and > 100 µM | > 100 | > 100 | > 100 | 28.3 µM and > 100 µM | 37.9 µM and 4.04 µM | 3.58 µM and 3.93 µM | 61.4 µM and 84.4 µM | 2.54 µM and 3.4 µM | 0.882 µM and 5.79 µM | 471 nM and 867 nM | 7.56 | 4.22 µM and 34.9 µM | 2.6 µM and 5.07 µM |
| Cc1c(C(=O)CC(=O)C(=O)NC2C3CC4CC(C3)CC2C4)[n+](=O)c2ccccc2n1[O-] (stereo not given) | > 100 | > 100 | > 100 | > 100 | > 100 | > 100 | > 100 µM | > 100 | > 100 | > 100 |  |  |  |  |  |  |  |  |  |  |
| CCN(CC)C(=S)SSC1CCCCC1 | 91.2 | 4.36 | 34.6 | > 100 | 42.8 | 77.9 | 75 µM | 12.7 | 46.3 | 25.2 | 30.5 µM | 0.0656 µM | 18 µM | 32.6 µM | 18 µM | 26.8 µM | 31200 nM | 2.91 | 20.8 µM | 11.9 µM |
